Experimental data taken from patent US4303664A, “Novel penicillin derivatives containing a coumarin nucleus and medicines containing the same” (Teijin Limited, priority 1978, dated 1981).
≈ marks a conversion by molar mass, not a printed value. Like-named read-outs stand apart in the source and are kept apart here.

Columns and labels:
Format in all cases: cell-based
[1] = tested on: Staphylococcus aureus 209-p; assay: Bactericidal test (MIC), Staphylococcus aureus 209-p; settings: (1) Staphylococcus aureus 209-p
Description: (§1) Results of bactericidal tests (MIC, r/ml) on the penicillin derivatives of this invention prepared in the above examples are shown in the following table.

[2] = tested on: Staphylococcus aureus 1248; assay: Bactericidal test (MIC), Staphylococcus aureus 1248
Description: as §1

Bacillus subtilis = assay: Bactericidal test (MIC), Bacillus subtilis; settings: (3) Bacillus subtilis
Description: as §1

[3] = tested on: Salmonella typhimurium G-20; assay: Bactericidal test (MIC), Salmonella typhimurium G-20; settings: Salmonella enterica; (4) Salmonella typhimurium G-20
Description: as §1

[4] = tested on: Escherichia Coli NIHJ JC-2; assay: Bactericidal test (MIC), Escherichia Coli NIHJ JC-2; settings: NIHJJC2; (5) Escherichia Coli NIHJ JC-2
Description: as §1

[5] = tested on: Klebsiella neumoniae ATCC10031; assay: Bactericidal test (MIC), Klebsiella neumoniae ATCC10031
Description: as §1

Enterobactor cloacae 147 = assay: Bactericidal test (MIC), Enterobactor cloacae 147; settings: (7) Enterobactor cloacae 147
Description: as §1

[6] = tested on: Enterobacter cloacae IF012937; assay: Bactericidal test (MIC), Enterobacter cloacae IF012937; settings: (8) Enterobacter cloacae IF012937
Description: as §1

Morganella var. G-2 = assay: Bactericidal test (MIC), Morganella var. G-2; settings: VAR.G2
Description: as §1

Rettgerella var. Tid-21 = assay: Bactericidal test (MIC), Rettgerella var. Tid-21
Description: as §1

Serratia G-18 = assay: Bactericidal test (MIC), Serratia G-18; settings: G18
Description: as §1

[7] = tested on: Pseudomonas aeruginosa IFO-3080; assay: Bactericidal test (MIC), Pseudomonas aeruginosa IFO-3080; settings: IFO3080
Description: as §1

[8] = tested on: Pseudomonas aeruginosa 0-37; assay: Bactericidal test (MIC), Pseudomonas aeruginosa 0-37; settings: 037; (13) Pseudomonas aeruginosa 0-37
Description: as §1

[9] = tested on: Pseudomonas aeruginosa Tid-53; assay: Bactericidal test (MIC), Pseudomonas aeruginosa Tid-53; settings: TID53; (14) Pseudomonas aeruginosa Tid-53
Description: as §1

[10] = tested on: Pseudomonas aeruginosa GN-315; assay: Bactericidal test (MIC), Pseudomonas aeruginosa GN-315; settings: GN315; (15) Pseudomonas aeruginosa GN-315
Description: as §1

[11] = tested on: Pseudomonas aeruginosa 130; assay: Bactericidal test (MIC), Pseudomonas aeruginosa 130; settings: (16) Pseudomonas aeruginosa 130
Description: as §1

[12] = (2) Staphylococcus aureus 1248, read-out: MIC
[13] = (6) Klebsiella neumoniae ATCC10031, read-out: MIC
[14] = (9) Morganella var. G-2, read-out: MIC
[15] = (10) Rettgerella var. Tid-21, read-out: MIC
[16] = (11) Serratia G-18, read-out: MIC
[17] = (12) Pseudomonas aeruginosa IFO-3080, read-out: MIC

Row | Compound | MIC [1] [µg/mL] | MIC [2, 12] [µg/mL] | MIC (Bacillus subtilis) [µg/mL] | MIC [3] [µg/mL] | MIC [4] [µg/mL] | MIC [5, 13] [µg/mL] | MIC (Enterobactor cloacae 147) [µg/mL] | MIC [6] [µg/mL] | MIC (Morganella var. G-2; [14]) [µg/mL] | MIC (Rettgerella var. Tid-21; [15]) [µg/mL] | MIC (Serratia G-18; [16]) [µg/mL] | MIC [7, 17] [µg/mL] | MIC [8] [µg/mL] | MIC [9] [µg/mL] | MIC [10] [µg/mL] | MIC [11] [µg/mL] | further results
1 | CCOc1cccc2cc(C(=O)N[C@@H](C(=O)N[C@@H]3C(=O)N4[C@@H]3SC(C)(C)[C@@H]4C(=O)O)c3ccccc3)c(=O)oc12 [Example 19, D(-)-α-(8-Ethoxycoumarin-3-carbonamido)benzylpenicillin] | < 0.4 | 3.13 (≈ 5.53 µM) | < 0.4 | < 0.4 | < 0.4 | < 0.4 | 6.25 (≈ 11.1 µM) | 6.25 (≈ 11.1 µM) | 3.13 (≈ 5.53 µM) | 3.13 (≈ 5.53 µM) | 12.5 (≈ 22.1 µM) | 1.56 (≈ 2.76 µM) | 12.5 (≈ 22.1 µM) | 3.13 (≈ 5.53 µM) | 6.25 (≈ 11.1 µM) | 1.56 (≈ 2.76 µM) | –
2 | COc1cc(OC)c2cc(C(=O)N[C@@H](C(=O)N[C@@H]3C(=O)N4[C@@H]3SC(C)(C)[C@@H]4C(=O)O)c3ccccc3)c(=O)oc2c1 [Example 22, D-α-(5,7-Dimethoxycoumarin-3-carbonamido)benzylpenicillin] | < 0.4 | 3.13 (≈ 5.38 µM) | – | – | < 0.4 | 1.56 (≈ 2.68 µM) | 12.5 (≈ 21.5 µM) | 50 (≈ 86 µM) | 50 (≈ 86 µM) | 25 (≈ 43 µM) | 100 (≈ 172 µM) | 1.56 (≈ 2.68 µM) | 50 (≈ 86 µM) | 6.25 (≈ 10.7 µM) | 6.25 (≈ 10.7 µM) | 3.13 (≈ 5.38 µM) | –
3 | CC1(C)S[C@@H]2[C@H](NC(=O)[C@H](NC(=O)c3cc4cccc(O)c4oc3=O)c3ccccc3)C(=O)N2[C@H]1C(=O)O [Example 26, D(-)-α-(8-Hydroxycoumarin-3-carbonamido)benzylpenicillin] | < 0.4 | – | < 0.4 | – | < 0.4 | – | 3.13 (≈ 5.82 µM) | 12.5 (≈ 23.3 µM) | 1.56 (≈ 2.9 µM) | 1.56 (≈ 2.9 µM) | 12.5 (≈ 23.3 µM) | < 0.4 | 50 (≈ 93 µM) | 6.25 (≈ 11.6 µM) | 1.56 (≈ 2.9 µM) | 1.56 (≈ 2.9 µM) | –
4 | CC1(C)S[C@@H]2[C@H](NC(=O)[C@H](N)c3ccccc3)C(=O)N2[C@H]1C(=O)O [Ampicillin, ampicillin, reference compound] | < 0.8 | < 0.8 | < 0.8 | < 0.8 | < 0.8 | – | 400 (≈ 1140 µM) | – | – | – | 25 (≈ 71.5 µM) | 200 (≈ 572 µM) | > 400 | > 400 | > 400 | > 400 | MIC ([5]; Klebsiella, ATCC10031): 12.5 µg/mL (≈ 35.8 µM); MIC (Morganella var. G-2; Morganella): 12.5 µg/mL (≈ 35.8 µM); MIC (Rettgerella var. Tid-21): 6.25 µg/mL (≈ 17.9 µM)
5 | CC1(C)S[C@@H]2[C@H](NC(=O)[C@H](NC(=O)c3cc4ccc(O)cc4oc3=O)c3ccccc3)C(=O)N2[C@H]1C(=O)O [Example 11, D(-)-α-(7-Hydroxycoumarin-3-carbonamido)benzylpenicillin] | < 0.4 | 6.25 (≈ 11.6 µM) | < 0.4 | < 0.4 | < 0.4 | 12.5 (≈ 23.3 µM) | 12.5 (≈ 23.3 µM) | 12.5 (≈ 23.3 µM) | 50 (≈ 93 µM) | 25 (≈ 46.5 µM) | 200 (≈ 372 µM) | 3.13 (≈ 5.82 µM) | 100 (≈ 186 µM) | 25 (≈ 46.5 µM) | 12.5 (≈ 23.3 µM) | 6.25 (≈ 11.6 µM) | –
6 | CC(=O)Oc1cccc2cc(C(=O)N[C@@H](C(=O)N[C@@H]3C(=O)N4[C@@H]3SC(C)(C)[C@@H]4C(=O)O)c3ccccc3)c(=O)oc12 [Example 21, D-α-(8-Acetoxycoumarin-3-carbonamido)benzylpenicillin] | < 0.4 | 3.13 (≈ 5.4 µM) | – | – | < 0.4 | 0.8 (≈ 1.38 µM) | – | 6.25 (≈ 10.8 µM) | 1.56 (≈ 2.69 µM) | 1.56 (≈ 2.69 µM) | 12.5 (≈ 21.6 µM) | < 0.4 | 50 (≈ 86.3 µM) | 12.5 (≈ 21.6 µM) | 3.13 (≈ 5.4 µM) | 0.8 (≈ 1.38 µM) | –
7 | CCOc1ccc2oc(=O)c(C(=O)N[C@@H](C(=O)N[C@@H]3C(=O)N4[C@@H]3SC(C)(C)[C@@H]4C(=O)O)c3ccccc3)cc2c1 [Example 23, D-α-(6-Ethoxycoumarin-3-carbonamido)benzylpenicillin] | < 0.4 | – | – | – | < 0.4 | 6.25 (≈ 11.1 µM) | 1.56 (≈ 2.76 µM) | 6.25 (≈ 11.1 µM) | 3.13 (≈ 5.53 µM) | 3.13 (≈ 5.53 µM) | 25 (≈ 44.2 µM) | 0.8 (≈ 1.41 µM) | 12.5 (≈ 22.1 µM) | 3.13 (≈ 5.53 µM) | 3.13 (≈ 5.53 µM) | 1.56 (≈ 2.76 µM) | –
8 | CC1(C)S[C@@H]2[C@H](NC(=O)C(C(=O)O)c3ccccc3)C(=O)N2[C@H]1C(=O)O (stereo partly shown) [Carbenicillin, carbenicillin, reference compound] | < 0.8 | – | < 0.8 | < 0.8 | < 0.8 | 50 (≈ 132 µM) | 200 (≈ 529 µM) | – | 1.56 (≈ 4.12 µM) | 25 (≈ 66.1 µM) | – | – | > 400 | 200 (≈ 529 µM) | 100 (≈ 264 µM) | 25 (≈ 66.1 µM) | MIC ([2]; Staphylococcus aureus, 1248): 3.13 µg/mL (≈ 8.27 µM); MIC (Serratia G-18; Serratia): 6.25 µg/mL (≈ 16.5 µM); MIC ([7]; Pseudomonas aeruginosa): 12.5 µg/mL (≈ 33 µM)
9 | COc1cccc2oc(=O)c(C(=O)N[C@@H](C(=O)N[C@@H]3C(=O)N4[C@@H]3SC(C)(C)[C@@H]4C(=O)O)c3ccccc3)cc12 [Example 24, D-α-(5-Methoxycoumarin-3-carbonamido)benzylpenicillin] | < 0.4 | – | – | – | < 0.4 | – | 1.56 (≈ 2.83 µM) | 6.25 (≈ 11.3 µM) | 3.13 (≈ 5.67 µM) | 3.13 (≈ 5.67 µM) | 25 (≈ 45.3 µM) | 0.8 (≈ 1.45 µM) | 12.5 (≈ 22.7 µM) | 3.13 (≈ 5.67 µM) | 3.13 (≈ 5.67 µM) | 1.56 (≈ 2.83 µM) | –
